System: ectonucleotidases expressed in U87 cell membrane preparations
Experiment: Enzymatic assay on U87 cell membrane preparations (adenosine formation, CE)
Assay type: biochemical, human
Details: 10 µg, 30 min 37°C, substrate 6 to 500 µM
Method: U87 glioblastoma cells were grown in cell culture dishes until reaching a fully covered confluent cell layer. Cells were cultivated at 37°C and 5% CO2 in DMEM with additions of 10% FCS, 1% penicillin/streptomycin (P/S) mixture and 1% L-glutamine. When confluent, the cell culture media was carefully removed and cells were frozen at -20°C overnight. The cells were then scraped off with a cell scraper using 2-3 mL of buffer (5 mM Tris, 2 mM EDTA, pH 7.4), homogenized and centrifuged for 10 min at 1000 g. The supernatant was collected and centrifuged for 60 min at 48000 g and 4°C. The pellet was then resuspended twice with Tris buffer, pH 7.4, followed by vortexing and centrifugation. The whole procedure was performed on ice. Finally, the pellet was resuspended and homogenized. A protein concentration of 1.5 mg/mL was determined with the Bradford method ([35]), and the protein was kept at -20°C until used. The enzymatic assay was performed by incubating the membrane preparation and the substrate at 37°C and 500 rpm for 30 min, followed by heat inactivation at 95°C for 5 min. For the determination of kinetic parameters, several substrate concentrations (from 6 to 500 µM of ATP or AMP) were utilized and incubated with 10 µg of membrane preparation for 30 min at 37°C, followed by heat inactivation. Capillary electrophoresis (CE) was used for analysis and quantification of the enzymatic product according to published procedures ([11], [36]). For the determination of the enzymatic activity 400 µM of ATP were employed, and three different amounts of membrane preparation (6, 10 and 30 µg of protein) were utilized. A positive control using the known NPP1 inhibitor PSB-POM-141 (20 µM) was performed ([19]). Data were obtained from three independent experiments each in duplicate measurements. […] Controls were run in parallel.

| Compound | Km [µM] |
| --- | --- |
| Nc1ncnc2c1ncn2[C@@H]1O[C@H](COP(=O)(O)O)[C@@H](O)[C@H]1O [AMP] | 38 |
| Nc1ncnc2c1ncn2[C@@H]1O[C@H](COP(=O)(O)OP(=O)(O)OP(=O)(O)O)[C@@H](O)[C@H]1O [ATP] | 83 |

From paper PMC10497752, “Heparins are potent inhibitors of ectonucleotide pyrophosphatase/phospho-diesterase-1 (NPP1) – a promising target for the immunotherapy of cancer” (Frontiers in Immunology, 2023)
